# Reference: ChEMBL document CHEMBL1201862, “PubChem BioAssay data set” (2004)
# Active and inactive are the calls of the source.
# Key:
# [1] = target: T1, Calpain-2 catalytic subunit (Sus scrofa, UniProt P43367); assay: pig calpain II inhibitor potency, dose response, biochemical, fluorogenic peptide substrate (AID 1420); format: functional
# T1 sequence (P43367 whole entry): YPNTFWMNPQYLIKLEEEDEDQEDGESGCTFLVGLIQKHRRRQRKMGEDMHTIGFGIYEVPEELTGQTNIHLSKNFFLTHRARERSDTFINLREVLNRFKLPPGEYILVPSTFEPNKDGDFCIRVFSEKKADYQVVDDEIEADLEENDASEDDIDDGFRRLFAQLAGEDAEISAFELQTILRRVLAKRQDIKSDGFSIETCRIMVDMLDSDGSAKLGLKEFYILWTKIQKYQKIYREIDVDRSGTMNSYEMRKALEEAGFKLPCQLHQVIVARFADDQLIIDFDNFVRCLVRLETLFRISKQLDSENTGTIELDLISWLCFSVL
# [2] = target: Intestinal-type alkaline phosphatase (Homo sapiens, UniProt P09923); assay: human intestinal alkaline phosphatase activators, dose response, biochemical, luminescence, uHTS hits (AID 463120); format: functional
# Intestinal-type alkaline phosphatase, sequence (P09923 whole entry): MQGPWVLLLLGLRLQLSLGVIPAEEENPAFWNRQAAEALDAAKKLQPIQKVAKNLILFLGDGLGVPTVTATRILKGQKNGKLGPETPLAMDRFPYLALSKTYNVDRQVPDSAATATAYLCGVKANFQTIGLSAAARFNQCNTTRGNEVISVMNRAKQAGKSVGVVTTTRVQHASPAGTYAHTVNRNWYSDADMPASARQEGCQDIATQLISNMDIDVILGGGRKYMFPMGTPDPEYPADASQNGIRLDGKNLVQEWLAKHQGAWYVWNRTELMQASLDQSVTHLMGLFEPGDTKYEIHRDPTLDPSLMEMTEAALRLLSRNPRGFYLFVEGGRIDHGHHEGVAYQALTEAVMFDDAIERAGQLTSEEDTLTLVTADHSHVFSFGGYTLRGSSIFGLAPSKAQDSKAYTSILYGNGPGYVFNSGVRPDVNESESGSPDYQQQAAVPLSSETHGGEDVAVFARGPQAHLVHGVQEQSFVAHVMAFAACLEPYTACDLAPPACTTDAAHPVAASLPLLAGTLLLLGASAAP
# [3] = target: Lysine-specific demethylase 4A (Homo sapiens, UniProt O75164); assay: JMJD2A histone demethylase inhibitors, dose response, selectivity assay for GASC-1 inhibitor project, biochemical, DELFIA europium, cherry-picked samples (AID 488840)
# Lysine-specific demethylase 4A, sequence (O75164 whole entry): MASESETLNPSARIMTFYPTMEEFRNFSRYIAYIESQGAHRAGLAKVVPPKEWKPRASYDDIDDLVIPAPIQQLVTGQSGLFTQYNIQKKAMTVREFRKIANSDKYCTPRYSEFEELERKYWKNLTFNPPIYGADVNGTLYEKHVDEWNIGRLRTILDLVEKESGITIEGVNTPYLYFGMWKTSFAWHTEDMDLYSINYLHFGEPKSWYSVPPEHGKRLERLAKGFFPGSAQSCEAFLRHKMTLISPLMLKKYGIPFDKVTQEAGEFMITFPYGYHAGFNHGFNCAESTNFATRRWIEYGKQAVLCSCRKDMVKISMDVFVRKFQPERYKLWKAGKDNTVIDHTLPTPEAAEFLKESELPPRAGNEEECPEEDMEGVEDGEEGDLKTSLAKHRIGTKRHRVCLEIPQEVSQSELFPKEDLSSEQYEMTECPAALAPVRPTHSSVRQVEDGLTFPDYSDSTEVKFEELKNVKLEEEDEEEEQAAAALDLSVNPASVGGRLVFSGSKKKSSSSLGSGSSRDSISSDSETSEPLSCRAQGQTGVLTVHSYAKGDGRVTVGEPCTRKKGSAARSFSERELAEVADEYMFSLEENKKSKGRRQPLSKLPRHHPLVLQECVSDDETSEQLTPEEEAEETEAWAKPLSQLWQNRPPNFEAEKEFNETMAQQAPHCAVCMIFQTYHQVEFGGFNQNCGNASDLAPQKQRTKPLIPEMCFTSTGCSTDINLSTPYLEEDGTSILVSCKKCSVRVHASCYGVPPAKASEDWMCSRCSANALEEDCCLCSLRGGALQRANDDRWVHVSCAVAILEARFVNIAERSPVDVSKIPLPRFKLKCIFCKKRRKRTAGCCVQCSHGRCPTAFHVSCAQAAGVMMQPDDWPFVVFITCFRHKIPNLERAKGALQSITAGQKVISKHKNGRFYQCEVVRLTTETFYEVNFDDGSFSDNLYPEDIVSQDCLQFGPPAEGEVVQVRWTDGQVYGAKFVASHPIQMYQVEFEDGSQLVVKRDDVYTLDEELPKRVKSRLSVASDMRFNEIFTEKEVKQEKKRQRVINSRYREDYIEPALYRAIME
# [4] = target: T2, Lysine-specific demethylase 4C (Homo sapiens, UniProt Q9H3R0); assay: GASC-1 (JMJD2C) histone demethylase inhibitors, dose response, biochemical, DELFIA europium, cherry-picked samples (AID 488835); format: functional
# T2 sequence (Q9H3R0 whole entry): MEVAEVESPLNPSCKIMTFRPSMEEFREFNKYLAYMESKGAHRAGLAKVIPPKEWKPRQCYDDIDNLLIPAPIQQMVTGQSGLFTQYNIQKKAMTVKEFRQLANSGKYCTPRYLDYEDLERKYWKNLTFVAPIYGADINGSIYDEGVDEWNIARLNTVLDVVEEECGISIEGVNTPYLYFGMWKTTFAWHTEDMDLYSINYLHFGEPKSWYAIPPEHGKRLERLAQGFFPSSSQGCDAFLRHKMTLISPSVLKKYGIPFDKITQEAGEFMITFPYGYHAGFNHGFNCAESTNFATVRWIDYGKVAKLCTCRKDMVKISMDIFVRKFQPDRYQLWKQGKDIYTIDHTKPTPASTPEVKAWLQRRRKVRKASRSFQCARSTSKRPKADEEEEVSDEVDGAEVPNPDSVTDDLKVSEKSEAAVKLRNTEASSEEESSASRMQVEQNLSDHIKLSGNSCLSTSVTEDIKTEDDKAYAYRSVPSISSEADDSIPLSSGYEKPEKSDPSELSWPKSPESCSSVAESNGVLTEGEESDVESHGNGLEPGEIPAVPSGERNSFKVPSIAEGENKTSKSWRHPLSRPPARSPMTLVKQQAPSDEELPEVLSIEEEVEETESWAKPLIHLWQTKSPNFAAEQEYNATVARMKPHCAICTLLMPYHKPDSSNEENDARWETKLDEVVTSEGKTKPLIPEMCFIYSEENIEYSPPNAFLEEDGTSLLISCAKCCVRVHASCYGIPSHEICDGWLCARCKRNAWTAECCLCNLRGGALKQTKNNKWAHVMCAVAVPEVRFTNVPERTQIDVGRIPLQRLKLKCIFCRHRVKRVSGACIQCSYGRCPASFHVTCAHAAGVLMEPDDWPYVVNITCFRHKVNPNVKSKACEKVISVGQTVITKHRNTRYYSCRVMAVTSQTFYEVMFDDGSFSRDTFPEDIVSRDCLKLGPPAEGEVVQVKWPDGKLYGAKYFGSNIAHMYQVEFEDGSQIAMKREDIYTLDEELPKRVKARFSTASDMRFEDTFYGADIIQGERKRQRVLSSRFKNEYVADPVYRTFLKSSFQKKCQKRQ
# [5] = growth suppression of PTEN-null colon cells, dose response, cell-based, HCT116 PTEN knockout (AID 1047); format: functional;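 note: HCT116 colon tumor cells with PTEN knocked out; cells exposed to compound for 60 hours before readout; potency for loss of cell viability measured by luminescence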
# [6] = growth suppression of beta-catenin-knockout colon cells, dose response, cell-based, HCT116, human colon tumor (AID 1045); format: functional;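 note: HCT116 colon tumor cells with beta catenin knocked out; cells exposed to compound for 60 hours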
# [7] = target: T3, Coagulation factor XII (Homo sapiens, UniProt P00748); format: functional;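 note: activated factor XIIa alpha cleaving a fluorogenic AMC peptide substrate; inhibitor potency from loss of enzyme activity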
# T3 sequence (P00748 whole entry): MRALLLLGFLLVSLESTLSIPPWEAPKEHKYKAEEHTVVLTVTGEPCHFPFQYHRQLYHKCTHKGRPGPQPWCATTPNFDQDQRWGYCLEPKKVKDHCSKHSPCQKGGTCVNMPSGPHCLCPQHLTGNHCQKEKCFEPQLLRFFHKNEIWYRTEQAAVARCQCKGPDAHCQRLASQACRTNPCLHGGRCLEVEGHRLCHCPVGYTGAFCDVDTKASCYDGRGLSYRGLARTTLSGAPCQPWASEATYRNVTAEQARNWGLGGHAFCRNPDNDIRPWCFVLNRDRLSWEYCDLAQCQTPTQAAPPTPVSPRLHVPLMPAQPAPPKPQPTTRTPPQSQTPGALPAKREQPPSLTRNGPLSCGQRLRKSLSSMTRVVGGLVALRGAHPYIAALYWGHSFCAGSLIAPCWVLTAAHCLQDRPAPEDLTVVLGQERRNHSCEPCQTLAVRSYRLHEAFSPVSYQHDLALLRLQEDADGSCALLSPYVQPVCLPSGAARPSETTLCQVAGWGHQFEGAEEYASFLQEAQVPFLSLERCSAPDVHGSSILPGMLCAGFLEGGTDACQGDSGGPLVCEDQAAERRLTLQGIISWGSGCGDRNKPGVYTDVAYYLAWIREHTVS
# [8] = target: Cytochrome P450 2C9 (Homo sapiens, UniProt P11712)
# Cytochrome P450 2C9, sequence (P11712 whole entry): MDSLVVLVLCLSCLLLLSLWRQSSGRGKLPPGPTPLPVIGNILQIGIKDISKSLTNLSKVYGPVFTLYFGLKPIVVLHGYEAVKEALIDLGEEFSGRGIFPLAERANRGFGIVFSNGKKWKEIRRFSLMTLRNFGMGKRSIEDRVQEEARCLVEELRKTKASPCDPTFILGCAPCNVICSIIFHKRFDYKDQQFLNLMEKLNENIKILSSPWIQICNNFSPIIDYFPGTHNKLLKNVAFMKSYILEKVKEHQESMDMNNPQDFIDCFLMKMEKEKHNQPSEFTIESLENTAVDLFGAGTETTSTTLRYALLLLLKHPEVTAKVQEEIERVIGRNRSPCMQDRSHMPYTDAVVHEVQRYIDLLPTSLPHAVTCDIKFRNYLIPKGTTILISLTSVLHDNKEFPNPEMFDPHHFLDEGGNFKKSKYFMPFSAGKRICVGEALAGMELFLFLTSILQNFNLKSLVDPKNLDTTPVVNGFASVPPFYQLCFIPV
# [9] = target: Cytochrome P450 3A4 (Homo sapiens, UniProt P08684);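 note: CYP3A4 tested as one member of a cytochrome P450 panel screen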
# Cytochrome P450 3A4, sequence (P08684 whole entry): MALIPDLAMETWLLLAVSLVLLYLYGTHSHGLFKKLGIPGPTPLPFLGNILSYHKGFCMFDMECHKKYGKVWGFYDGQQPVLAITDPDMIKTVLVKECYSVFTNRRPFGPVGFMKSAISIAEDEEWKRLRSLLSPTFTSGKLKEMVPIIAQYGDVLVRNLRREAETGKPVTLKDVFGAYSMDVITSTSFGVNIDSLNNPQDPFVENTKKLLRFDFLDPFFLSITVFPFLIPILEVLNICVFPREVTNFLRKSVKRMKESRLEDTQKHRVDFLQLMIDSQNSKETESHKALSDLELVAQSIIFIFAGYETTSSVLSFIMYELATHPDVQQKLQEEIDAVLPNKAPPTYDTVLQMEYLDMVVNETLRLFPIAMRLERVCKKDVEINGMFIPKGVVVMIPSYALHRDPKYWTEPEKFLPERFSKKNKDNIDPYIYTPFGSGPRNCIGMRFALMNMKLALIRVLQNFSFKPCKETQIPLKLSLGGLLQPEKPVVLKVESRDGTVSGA
# [10] = target: T4, Tyrosine-protein phosphatase non-receptor type 7 (Homo sapiens, UniProt P35236); format: functional
# T4 sequence (P35236 whole entry): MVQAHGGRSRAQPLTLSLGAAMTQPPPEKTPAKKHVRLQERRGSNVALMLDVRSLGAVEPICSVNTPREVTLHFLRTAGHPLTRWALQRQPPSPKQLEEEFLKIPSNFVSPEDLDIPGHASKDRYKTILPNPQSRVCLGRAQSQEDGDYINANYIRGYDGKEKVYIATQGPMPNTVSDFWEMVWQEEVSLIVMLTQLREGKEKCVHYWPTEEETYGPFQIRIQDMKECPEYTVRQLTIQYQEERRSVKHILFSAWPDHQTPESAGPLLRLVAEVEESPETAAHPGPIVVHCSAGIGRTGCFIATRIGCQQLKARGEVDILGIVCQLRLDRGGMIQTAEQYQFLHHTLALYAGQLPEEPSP
# [11] = target: T5, Tyrosine-protein phosphatase non-receptor type 22 (Homo sapiens, UniProt Q9Y2R2); format: functional
# T5 sequence (Q9Y2R2 whole entry): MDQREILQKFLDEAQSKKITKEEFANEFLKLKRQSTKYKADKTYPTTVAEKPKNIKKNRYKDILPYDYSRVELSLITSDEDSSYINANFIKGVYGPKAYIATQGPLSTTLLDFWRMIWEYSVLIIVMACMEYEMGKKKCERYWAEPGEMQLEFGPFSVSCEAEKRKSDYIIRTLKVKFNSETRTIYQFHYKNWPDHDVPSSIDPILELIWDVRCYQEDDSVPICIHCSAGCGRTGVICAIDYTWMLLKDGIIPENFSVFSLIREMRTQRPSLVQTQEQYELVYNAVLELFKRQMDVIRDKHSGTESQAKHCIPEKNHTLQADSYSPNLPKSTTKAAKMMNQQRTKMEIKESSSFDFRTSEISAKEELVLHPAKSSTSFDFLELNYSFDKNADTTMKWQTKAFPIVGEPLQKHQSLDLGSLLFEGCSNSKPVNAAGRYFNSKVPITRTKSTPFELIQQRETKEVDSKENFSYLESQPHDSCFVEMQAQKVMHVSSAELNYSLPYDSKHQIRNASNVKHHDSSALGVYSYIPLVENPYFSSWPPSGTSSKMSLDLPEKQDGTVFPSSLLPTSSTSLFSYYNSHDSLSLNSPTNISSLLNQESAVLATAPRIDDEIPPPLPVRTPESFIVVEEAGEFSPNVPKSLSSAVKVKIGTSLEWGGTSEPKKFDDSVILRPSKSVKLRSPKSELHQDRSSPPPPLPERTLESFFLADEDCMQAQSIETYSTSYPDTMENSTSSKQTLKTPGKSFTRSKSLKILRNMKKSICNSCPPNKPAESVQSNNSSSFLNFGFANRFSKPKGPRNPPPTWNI
# [12] = target: T5, Tyrosine-protein phosphatase non-receptor type 22; format: functional; remark: listed apart in the source
# [13] = target: T6, Nucleotide-binding oligomerization domain-containing protein 1 (Homo sapiens, UniProt Q9Y239); assay: SAR analysis of compounds that inhibit NOD1 - Set 3. [Related pubchem assays (depositor defined):AID1566, AID1575, AID1578, AID1849, AID1852, AID2333, AID2335, AID2466]; format: functional
# T6 sequence (Q9Y239 whole entry): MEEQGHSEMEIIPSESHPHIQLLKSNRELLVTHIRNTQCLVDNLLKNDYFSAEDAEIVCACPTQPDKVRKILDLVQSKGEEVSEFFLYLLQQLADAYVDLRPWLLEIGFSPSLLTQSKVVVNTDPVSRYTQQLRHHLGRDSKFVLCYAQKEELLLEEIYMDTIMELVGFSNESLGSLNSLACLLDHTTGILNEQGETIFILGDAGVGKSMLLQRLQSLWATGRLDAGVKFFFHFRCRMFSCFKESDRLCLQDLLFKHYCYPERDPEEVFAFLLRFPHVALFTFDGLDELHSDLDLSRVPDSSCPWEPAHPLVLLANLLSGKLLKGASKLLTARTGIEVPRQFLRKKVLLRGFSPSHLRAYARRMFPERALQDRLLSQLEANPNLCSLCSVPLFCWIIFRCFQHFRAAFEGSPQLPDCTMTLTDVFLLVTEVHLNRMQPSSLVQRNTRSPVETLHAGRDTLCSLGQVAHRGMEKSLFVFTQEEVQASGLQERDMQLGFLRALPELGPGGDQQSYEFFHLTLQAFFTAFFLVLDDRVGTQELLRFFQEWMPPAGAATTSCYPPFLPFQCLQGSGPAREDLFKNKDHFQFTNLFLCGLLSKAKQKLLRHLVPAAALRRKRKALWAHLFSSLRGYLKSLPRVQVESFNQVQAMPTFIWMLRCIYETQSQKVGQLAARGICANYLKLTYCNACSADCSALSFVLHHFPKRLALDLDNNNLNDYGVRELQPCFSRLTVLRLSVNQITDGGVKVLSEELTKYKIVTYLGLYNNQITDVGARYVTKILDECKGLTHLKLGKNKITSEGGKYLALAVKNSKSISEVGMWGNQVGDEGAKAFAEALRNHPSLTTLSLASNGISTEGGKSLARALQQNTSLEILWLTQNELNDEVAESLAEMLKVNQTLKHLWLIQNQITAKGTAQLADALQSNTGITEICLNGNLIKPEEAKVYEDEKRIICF
# [14] = target: Tumor necrosis factor (Homo sapiens, UniProt P01375); assay: TNFa-triggered NF-kB activation inhibitors, SAR follow-up, cell-based, set 3 (AID 2801); format: functional
# Tumor necrosis factor, sequence (P01375 whole entry): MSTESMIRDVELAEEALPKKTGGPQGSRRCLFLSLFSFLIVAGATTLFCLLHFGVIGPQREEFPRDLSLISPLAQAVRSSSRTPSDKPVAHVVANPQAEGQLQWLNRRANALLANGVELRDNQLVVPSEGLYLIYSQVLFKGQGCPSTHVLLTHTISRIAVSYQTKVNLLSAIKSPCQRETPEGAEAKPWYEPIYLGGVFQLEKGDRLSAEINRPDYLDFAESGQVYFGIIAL
# [15] = test system: HEK293; assay: SAR analysis of compounds that are cytotoxic to HEK293 - Set 3. [Related pubchem assays (depositor defined):AID1575, AID1578, AID1848, AID1849, AID2001, AID2333, AID2334, AID2335, AID2337, AID2469]; format: functional, cell-based; settings: Homo sapiens
# [16] = target: Nucleotide-binding oligomerization domain-containing protein 2 (Homo sapiens, UniProt Q9HC29); assay: NOD2 signaling inhibitors, analog potency, SAR follow-up, cell-based, set 3 (AID 2799); format: functional
# Nucleotide-binding oligomerization domain-containing protein 2, sequence (Q9HC29 whole entry, the tested form may be a part): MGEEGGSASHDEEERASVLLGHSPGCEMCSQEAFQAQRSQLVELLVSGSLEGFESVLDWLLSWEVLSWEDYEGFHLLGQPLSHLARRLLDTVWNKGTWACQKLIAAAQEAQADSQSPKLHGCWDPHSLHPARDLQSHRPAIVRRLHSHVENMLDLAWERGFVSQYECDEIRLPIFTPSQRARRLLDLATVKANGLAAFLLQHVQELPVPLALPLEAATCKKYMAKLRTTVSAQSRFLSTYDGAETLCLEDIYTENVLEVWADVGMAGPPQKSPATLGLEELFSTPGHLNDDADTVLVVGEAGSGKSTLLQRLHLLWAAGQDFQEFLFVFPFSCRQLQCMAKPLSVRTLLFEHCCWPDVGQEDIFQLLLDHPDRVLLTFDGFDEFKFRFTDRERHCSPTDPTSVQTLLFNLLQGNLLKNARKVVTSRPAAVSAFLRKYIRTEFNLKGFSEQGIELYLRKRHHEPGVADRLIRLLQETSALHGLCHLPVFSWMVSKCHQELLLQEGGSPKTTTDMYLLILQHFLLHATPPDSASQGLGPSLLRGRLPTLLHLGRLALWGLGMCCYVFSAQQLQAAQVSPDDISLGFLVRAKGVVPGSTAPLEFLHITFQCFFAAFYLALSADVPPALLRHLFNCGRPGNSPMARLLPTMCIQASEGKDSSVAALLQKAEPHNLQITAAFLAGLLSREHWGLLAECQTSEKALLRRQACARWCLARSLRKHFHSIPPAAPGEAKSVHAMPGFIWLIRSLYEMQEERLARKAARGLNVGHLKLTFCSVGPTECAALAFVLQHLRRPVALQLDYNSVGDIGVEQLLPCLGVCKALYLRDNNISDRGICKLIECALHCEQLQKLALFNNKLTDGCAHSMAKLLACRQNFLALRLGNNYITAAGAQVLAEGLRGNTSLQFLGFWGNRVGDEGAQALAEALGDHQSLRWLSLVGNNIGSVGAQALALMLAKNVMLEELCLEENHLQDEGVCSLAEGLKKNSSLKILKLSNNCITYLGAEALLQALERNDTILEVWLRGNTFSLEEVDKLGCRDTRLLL
structure (smiles),measurement,setting,value
Cc1cc2cc3c(cc2nc1SCC(=O)Nc1nc(C)c(C)s1)OCO3,IC50,[1],24.1 µM (not active)
same,EC50,[2],25 µM (active)
CC(C)Oc1ccc(Cc2c(O)nc(O)nc2O)cc1,AC50,[3],17.5 µM (active)
same,AC50,[4],2.86 µM (active)
Cc1ccccc1NC(=O)c1cccc2nc3ccccc3nc12,EC50,[5],23.8 µM (active)
same,EC50,[6],21.9 µM (active)
same,IC50,[7],> 50 µM (inactive)
same,AC50,[8],8.91 µM (inconclusive)
same,AC50,[9],inconclusive
COc1ccc(C2C(C(C)=O)=C(O)C(=O)N2c2nccs2)cc1OC (configuration not stated),IC50,[7],> 50 µM (inactive)
Cc1nn(Cc2cccc(C(=O)NC34CC5CC(CC(C5)C3)C4)c2)c(C)c1Br,IC50,[10],> 79.4 µM (inactive)
same,IC50,[11],> 79.4 µM (inactive)
same,IC50,[12],> 79.4 µM (inactive)
Nc1nc2ccccc2n1S(=O)(=O)c1cccc2ccccc12,IC50,[13],> 20 µM (inactive)
same,IC50,[14],> 20 µM (inactive)
same,IC50,[15],> 20 µM (inactive)
same,IC50,[16],> 20 µM (inactive)
